Assay results reported in patent US9260404B1, “Preparation of ambrox from labdanes of Dysoxylum hongkongense, and the preparation of new diterpenoids from Dysoxylum hongkongense” (National Taiwan University, priority 2014, dated 2016).
≈ marks a conversion by molar mass, not a printed value.

Tests used:
[1] = tested on: human hepatocellular carcinoma Hep-G2; assay: Cytotoxic assay (MTT), Hep-G2; assay type: cell-based
Experimental: (§1) Cytotoxic Assay. Human hepatocellular carcinoma Hep-G2, human colon adenocarcinoma WiDr and human laryngeal carcinoma Hep-2 were used as the targets for research, and an antitumor drug, mitomycin C, was the control. The effective dosage (ED50, μg/mL) of the compounds on the cancer cell cytotoxicity was determined by the well-known cytotoxicity assay (3-(4,5-dimethylthiazol-2-yl)-2,5-diphenyltetrazolium bromide (MTT) assay) in the art.

[2] = tested on: human laryngeal carcinoma Hep-2; assay: Cytotoxic assay (MTT), Hep-2; assay type: cell-based; settings: Hep-2, MTT assay
Experimental: as §1

[3] = tested on: human colon adenocarcinoma WiDr; assay: Cytotoxic assay (MTT), WiDr; assay type: cell-based
Experimental: as §1

HSV-1 (KOS strain) = assay: Anti-HSV-1 plaque reduction assay in Vero cells; assay type: cell-based, Herpes Simplex Virus-1; settings: for inhibition (in vitro inhibitory activity against the HSV-1 virus): at 10 μM, plaque formation in Vero cells; for inhibition at 10 µM: Human alphaherpesvirus 1, plaque formation in Vero cells, read-out: inhibition (in vitro inhibitory activity against the HSV-1 virus)
Experimental: Anti Herpes Simplex Virus-1 (HSV-1) Assay, Cell Culture and Virus. Vero cells were cultured in minimal essential medium (MEM; GIBCO®, Grand Island, N.Y.) supplemented with 10% fetal calf serum (FCS; Hyclone™, Logan, Utah), 100 U/mL penicillin and 100 μg/mL streptomycin and incubated at 37° C. in a 5% CO2 incubator. To prepare a stock of HSV-1 (KOS strain, VR-1493, ATCC), Vero cells were infected with HSV-1 at a multiplicity of infection points on three plaque forming units (PFU)/cell and harvested at 24 hours postinfection and centrifuged at 1500×g (Centrifuge 5810 R, Eppendorf) at 4° C. for 20 minutes. The supernatant was collected and stored at −70° C. for use.
Plaque Reduction Assay. The bioassay followed a procedure described previously (Kuo et al., Samarangenin B from Limonium sinense Suppresses Herpes Simplex Virus Type 1 Replication in Vero Cells by Regulation of Viral Macromolecular Synthesis. Antimicrob. Agents Chemother., 2002, 46(9): 2854-2864.). […] The viruses were adsorbed for 1 hour at 37° C. and 1% methylcellulose was added to each well. After 5 days, the virus plaques formed in Vero cells were counted by crystal violet staining. The activities of various compounds and acyclovir for inhibition of plaque formation were calculated.

[4] = tested on: elastase release by human neutrophils; assay: Elastase release by human neutrophils in response to FMLP/CB; assay type: cell-based; settings: 10 μg/mL
Experimental: (§2) Anti-inflammatory Assays, Inhibitory Effect on Superpxide Anion Generation and Elastase Release by Human Neutrophils. Neutrophils were obtained by means of dextran sedimentation and Ficoll centrifugation. Superoxide generation and elastase release were carried out according to a procedure described previously (Hwang et al., Inhibition of Superoxide Anion and Elastase Release in Human Neutrophils by 3′-Isopropoxychalcone via a cAMP-dependent Pathway. Br. J. Pharmacol., 2006, 148(1): 78-87.; and Liaw et al., Frajunolides E-K, Briarane Diterpenes from Junceella fragilis. J. Nat. Prod., 2008, 71(9): 1551-1556.). Superoxide anion production was assayed by monitoring the superoxide dismutase-inhibitable reduction of ferricytochrome c. Elastase release experiments were performed using MeO-Suc-Ala-Ala-Pro-Val p-nitroanilide as the elastase substrate.

[5] = tested on: superoxide anion generation by human neutrophils; assay: Superoxide anion generation by human neutrophils in response to FMLP/CB; assay type: cell-based; settings: 10 μg/mL
Experimental: as §2

Compound: C=C[C@@]1(C)O[C@]2(C)CC[C@H]3C(C)(C)C(=O)CC[C@]3(C)[C@H]2C[C@H]1O [Compound 8, Dysongensin B]
- ED50 cytotoxic activity against Hep-G2 cells [1]: 18.05 ± 0.58 µg/mL (≈ 56.3 µM)
- ED50 cytotoxic activity against Hep-2 cells [2]: 16.07 ± 0.17 µg/mL (≈ 50.1 µM)
- ED50 cytotoxic activity against WiDr cells [3]: 19.13 ± 0.56 µg/mL (≈ 59.7 µM)

Compound: C=C[C@@](C)(O)[C@@H]1C[C@@H]2[C@@]3(C)CCC(=O)C(C)(C)[C@@H]3CC[C@@]2(C)O1 [Compound 9, Dysongensin C]
- inhibition (in vitro inhibitory activity against the HSV-1 virus) (HSV-1 (KOS strain)): 32.7±4.0%

Compound: C=C[C@@](C)(O)[C@H]1C[C@@H]2[C@@]3(C)CCC(=O)C(C)(C)[C@@H]3CC[C@@]2(C)O1 [Compound 10, Dysongensin D]
- inhibition at 10 µM (HSV-1 (KOS strain)): 25.2 ± 6%

Compound: C=C[C@](C)(O)[C@H]1C[C@@H]2[C@@]3(C)CCC(=O)C(C)(C)[C@@H]3CC[C@@]2(C)O1 [Compound 11, Dysongensin E]
- anti-inflammatory effect on elastase release [4]: 31.29±6.67%

Compound: C=C[C@](C)(O)[C@H]1C[C@@H]2[C@@]3(C)CC[C@H](O)C(C)(C)[C@@H]3CC[C@@]2(C)O1 [Compound 12, Dysongensin F]
- ED50 cytotoxic activity against Hep-2 cells [2]: 17.92 ± 0.25 µg/mL (≈ 55.6 µM)

Compound: C=C[C@@](O)(CO)[C@H]1C[C@@H]2[C@@]3(C)CCC4C[C@@]4(C)[C@@H]3CC[C@@]2(C)O1 (stereo partly drawn) [Compound 13, Dysongensin G]
- ED50 cytotoxic activity against Hep-G2 cells [1]: 37.78 ± 0.81 µg/mL (≈ 118 µM)
- inhibition (in vitro inhibitory activity against the HSV-1 virus) (HSV-1 (KOS strain)): 29.3±9.0%

Compound: C=C[C@](O)(CO)[C@@H]1C[C@@H]2[C@@]3(C)CCC4C[C@@]4(C)[C@@H]3CC[C@@]2(C)O1 (stereo partly drawn) [Compound 14, Dysongensin H]
- ED50 cytotoxic activity against Hep-G2 cells [1]: 16.86 ± 0.85 µg/mL (≈ 52.6 µM)
- ED50 cytotoxic activity against WiDr cells [3]: 15.45 ± 0.73 µg/mL (≈ 48.2 µM)
- inhibition at 10 µM (HSV-1 (KOS strain)): 29.7 ± 6%
- anti-inflammatory effect on superoxide anion generation [5]: 25.33±4.04%

Compound: Dysongensin A [Compound 1]
- ED50 cytotoxic activity against Hep-G2 cells [1]: 20.34 ± 0.58 µg/mL
- ED50 cytotoxic activity against WiDr cells [3]: 18.67 ± 0.56 µg/mL
